Key:
Type in all cases: biochemical
[1] = biological target: T1, human GST-DYRK1A (Homo sapiens, UniProt Q13627); assay: GST-DYRK1A enzyme inhibition, ADP-Glo kinase assay; conditions: ATP 10 μM, GST-DYRK1A full length, read-out: DYRK1 IC50
T1 construct: purified human GST-DYRK1A (full length, Thermo Scientifics) enzyme; purchased Thermo Scientifics
Summary of the method: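 Full-length enzyme (10 ng) was incubated with 10 μM ATP and a specific substrate for 1 h at 25 °C in 40 mM Tris-HCl pH 7.4, 20 mM MgCl2, 0.5 mg/mL BSA, 50 μM DTT. Luminescence was read against a solvent control, and IC50 values were derived from 3 data sets.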

[2] = biological target: T2, human GST-CLK1 (Homo sapiens, UniProt P49759); assay: GST-CLK1 enzyme inhibition, ADP-Glo kinase assay; conditions: ATP 10 μM, GST-CLK1 129-end
T2 construct: purified human GST-CLK1 (129-end, SignalChem) enzyme; purchased SignalChem
T2 sequence (P49759 129-484 limits assumed): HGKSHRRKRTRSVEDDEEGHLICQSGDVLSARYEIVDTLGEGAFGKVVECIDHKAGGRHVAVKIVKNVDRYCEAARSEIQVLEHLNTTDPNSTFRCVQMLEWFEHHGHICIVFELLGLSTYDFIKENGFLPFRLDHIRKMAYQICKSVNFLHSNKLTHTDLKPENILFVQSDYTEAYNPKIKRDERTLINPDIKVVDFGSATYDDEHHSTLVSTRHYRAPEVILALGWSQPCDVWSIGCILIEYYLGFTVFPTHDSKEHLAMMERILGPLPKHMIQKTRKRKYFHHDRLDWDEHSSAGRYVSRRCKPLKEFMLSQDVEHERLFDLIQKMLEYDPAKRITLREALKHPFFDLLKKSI
Summary of the method: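 ADP-Glo luminescence read-out, relative to untreated solvent control, gave IC50 (nM) from triplicate data sets. Reactions ran an hour at 25° C with 3 ng GST-CLK1 (residues 129-end), 10 μM ATP and specific substrate in Tris-HCl pH 7.4 buffer with MgCl2, BSA and DTT.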

[3] = biological target: LRRK2 (G2019S) (Homo sapiens, UniProt Q5S007, G2019S); assay: LRRK2 G2019S enzyme inhibition, ADP-Glo kinase assay; set-up: purchased SignalChem L10-12GG; conditions: ATP 25 μM
Chain of LRRK2 (G2019S) (Q5S007 970-2527 G2019S limits assumed): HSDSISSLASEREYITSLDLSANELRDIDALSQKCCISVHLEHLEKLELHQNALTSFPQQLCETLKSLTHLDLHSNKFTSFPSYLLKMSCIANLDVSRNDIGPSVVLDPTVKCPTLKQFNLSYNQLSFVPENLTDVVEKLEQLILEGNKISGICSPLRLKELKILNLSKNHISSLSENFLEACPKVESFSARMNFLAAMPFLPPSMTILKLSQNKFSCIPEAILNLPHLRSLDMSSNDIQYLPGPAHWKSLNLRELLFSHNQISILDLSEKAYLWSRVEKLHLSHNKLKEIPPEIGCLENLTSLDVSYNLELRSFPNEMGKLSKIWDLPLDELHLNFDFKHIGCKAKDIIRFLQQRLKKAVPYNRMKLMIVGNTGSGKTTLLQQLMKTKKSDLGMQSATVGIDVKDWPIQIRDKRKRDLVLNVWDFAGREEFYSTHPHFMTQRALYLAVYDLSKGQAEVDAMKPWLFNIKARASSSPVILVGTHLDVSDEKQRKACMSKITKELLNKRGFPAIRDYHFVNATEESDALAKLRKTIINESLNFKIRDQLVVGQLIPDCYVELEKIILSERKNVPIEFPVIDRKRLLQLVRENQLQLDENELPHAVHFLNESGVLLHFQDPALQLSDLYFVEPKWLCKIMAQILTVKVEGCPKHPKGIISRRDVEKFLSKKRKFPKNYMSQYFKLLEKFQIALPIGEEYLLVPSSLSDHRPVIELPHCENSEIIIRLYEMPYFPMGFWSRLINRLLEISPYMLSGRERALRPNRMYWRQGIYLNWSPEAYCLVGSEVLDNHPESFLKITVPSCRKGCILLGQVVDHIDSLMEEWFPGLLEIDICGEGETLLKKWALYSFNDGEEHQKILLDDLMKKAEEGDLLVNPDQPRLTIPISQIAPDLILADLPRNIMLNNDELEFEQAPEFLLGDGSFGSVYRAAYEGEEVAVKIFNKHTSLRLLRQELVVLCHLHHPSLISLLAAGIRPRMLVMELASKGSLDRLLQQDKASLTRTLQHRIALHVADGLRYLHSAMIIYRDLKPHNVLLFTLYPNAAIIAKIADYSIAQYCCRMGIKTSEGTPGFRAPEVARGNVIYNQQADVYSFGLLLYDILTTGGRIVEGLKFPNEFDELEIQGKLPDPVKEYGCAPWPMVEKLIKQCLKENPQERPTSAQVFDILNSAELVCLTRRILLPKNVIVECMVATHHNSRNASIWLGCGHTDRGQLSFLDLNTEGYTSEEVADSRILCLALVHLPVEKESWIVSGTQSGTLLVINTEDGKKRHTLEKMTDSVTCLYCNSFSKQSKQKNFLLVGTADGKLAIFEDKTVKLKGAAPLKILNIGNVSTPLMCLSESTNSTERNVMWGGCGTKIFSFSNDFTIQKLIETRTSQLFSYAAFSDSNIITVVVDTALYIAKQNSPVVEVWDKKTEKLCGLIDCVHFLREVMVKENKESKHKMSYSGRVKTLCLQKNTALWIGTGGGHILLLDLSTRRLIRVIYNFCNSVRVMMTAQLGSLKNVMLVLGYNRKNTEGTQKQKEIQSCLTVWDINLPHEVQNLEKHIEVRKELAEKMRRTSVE
Summary of the method: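 IC50 derived from luminescent ADP-Glo readout against untreated solvent control, twelve final compound concentrations from 50 μM downward. Reaction: recombinant human LRRK2 G2019S enzyme, 25 μM ATP, substrate, pH 7.4 Tris buffer with MgCl2/BSA/DTT, 25° C. for 2 hours.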

[4] = biological target: LRRK2 (Homo sapiens, UniProt Q5S007); assay: LRRK2 enzyme inhibition, ADP-Glo kinase assay; set-up: purchased Invitrogen PR8604B; conditions: ATP 10 μM
Chain of LRRK2 (Q5S007 970-2527 limits assumed): as the sequence (Q5S007 970-2527 G2019S limits assumed) above, with S1050G counted along it
Summary of the method: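 ADP-Glo luminescent read-out of ADP formed by purified human LRRK2 enzyme (25 ng), 10 μM ATP, 0.2 μg substrate, 25° C for 2 h, Tris-HCl pH 7.4 buffer with MgCl2, BSA, DTT. Inhibition versus untreated solvent control over twelve final concentrations (50 μM downward) gives IC50.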

In the case of COc1cc(S(=O)(=O)N2CCC(N3CCOCC3)CC2)ccc1Nc1nc(NCC(C)C)c2c(C(F)(F)F)c[nH]c2n1 [Example 179, N^4-isobutyl-N^2-(2-methoxy-4-((4-morpholinopiperidin-1-yl)sulfonyl)phenyl)-5-(trifluoromethyl)-7H-pyrrolo[2,3-d]pyrimidine-2,4-diamine], the IC50 [1] is reported as 301 to 1000 nM, the IC50 [2] is reported as 301 to 1000 nM and the IC50 [3] is reported as 101 to 300 nM. The IC50 [4] was < 100 nM.

In the case of COc1cc(S(C)(=O)=O)ccc1Nc1nc(NC2CC2)c2c(C#N)c[nH]c2n1 [Example 104, 4-(cyclopropylamino)-2-((2-methoxy-4-(methylsulfonyl)phenyl)amino)-7H-pyrrolo[2,3-d]pyrimidine-5-carbonitrile], the IC50 [1] is reported as 301 to 1000 nM, the IC50 [2] is reported as 101 to 300 nM and the IC50 [3] is reported as < 100 nM. The IC50 [4] was < 100 nM.

COc1cc(S(C)(=O)=O)ccc1Nc1nc(NC(C)C)c2c(C#N)c[nH]c2n1 [Example 101, 4-(isopropylamino)-2-((2-methoxy-4-(methylsulfonyl)phenyl)amino)-7H-pyrrolo[2,3-d]pyrimidine-5-carbonitrile] was tested, and the IC50 [1] was 301 to 1000 nM, the IC50 [2] was 301 to 1000 nM and the IC50 [3] was < 100 nM. For the same molecule, the IC50 [4] was < 100 nM.

With CCCCNc1nc(Nc2ccc(C(=O)N3CCOCC3)c3c2OCCO3)nc2[nH]cc(C#N)c12 [Example 134, 4-(butylamino)-2-((8-(morpholine-4-carbonyl)-2,3-dihydrobenzo[b][1,4]dioxin-5-yl)amino)-7H-pyrrolo[2,3-d]pyrimidine-5-carbonitrile] the IC50 [1] was 301 to 1000 nM, the IC50 [2] was 301 to 1000 nM and the IC50 [3] was < 100 nM. The IC50 [4] was < 100 nM.

With COCCNc1nc(Nc2ccc(S(C)(=O)=O)cc2OC)nc2[nH]cc(C#N)c12 [Example 103, 2-((2-methoxy-4-(methylsulfonyl)phenyl)amino)-4-((2-methoxyethyl)amino)-7H-pyrrolo[2,3-d]pyrimidine-5-carbonitrile] the IC50 [1] was 301 to 1000 nM, the IC50 [2] was 301 to 1000 nM and the IC50 [3] was < 100 nM. The IC50 [4] was < 100 nM.

COCC(C)(C)Nc1nc(Nc2ccc(C(=O)N3CCOCC3)c3c2OCCO3)nc2[nH]cc(C(F)(F)F)c12 [Example 178, (8-((4-((1-methoxy-2-methylpropan-2-yl)amino)-5-(trifluoromethyl)-7H-pyrrolo[2,3-d]pyrimidin-2-yl)amino)-2,3-dihydrobenzo[b][1,4]dioxin-5-yl)(morpholino)methanone] was tested, and the IC50 [1] was 301 to 1000 nM, the IC50 [2] was 301 to 1000 nM and the IC50 [3] was < 100 nM. For the same molecule, the IC50 [4] was < 100 nM.

In the case of CCNc1nc(Nc2ccc(C(=O)N3CCC(N4CCOCC4)CC3)c3c2OCCO3)nc2[nH]cc(C(F)(F)F)c12 [Example 363, (8-((4-(ethylamino)-5-(trifluoromethyl)-7H-pyrrolo[2,3-d]pyrimidin-2-yl)amino)-2,3-dihydro-benzo[b][1,4]dioxin-5-yl)(4-morpholino-piperidin-1-yl)methanone], the IC50 [1] is reported as 101 to 300 nM, the IC50 [2] is reported as < 100 nM and the IC50 [3] is reported as < 100 nM. The IC50 [4] was < 100 nM.

With CC(C)Nc1nc(Nc2ccc(C(=O)N3CCOCC3)c3c2OCCO3)nc2[nH]cc(C#N)c12 [Example 122, 4-(isopropylamino)-2-((8-(morpholine-4-carbonyl)-2,3-dihydrobenzo[b][1,4]dioxin-5-yl)amino)-7H-pyrrolo[2,3-d]pyrimidine-5-carbonitrile] the IC50 [1] was 101 to 300 nM, the IC50 [2] was < 100 nM and the IC50 [3] was < 100 nM. The IC50 [4] was < 100 nM.

With COc1cc(S(C)(=O)=O)ccc1Nc1nc(NC2CCC2)c2c(C#N)c[nH]c2n1 [Example 105, 4-(cyclobutylamino)-2-((2-methoxy-4-(methylsulfonyl)phenyl)amino)-7H-pyrrolo[2,3-d]pyrimidine-5-carbonitrile] the IC50 [1] was 301 to 1000 nM, the IC50 [2] was 301 to 1000 nM and the IC50 [3] was < 100 nM. The IC50 [4] was < 100 nM.

In the case of CCNc1nc(Nc2ccc(C(=O)N3CCC(N4CCOCC4)CC3)c3c2OCCO3)nc2[nH]cc(C#N)c12 [Example 137, 4-(ethylamino)-2-((8-(4-morpholinopiperidine-1-carbonyl)-2,3-dihydrobenzo[b][1,4]dioxin-5-yl)amino)-7H-pyrrolo[2,3-d]pyrimidine-5-carbontrile], the IC50 [1] is reported as 101 to 300 nM, the IC50 [2] is reported as < 100 nM and the IC50 [3] is reported as < 100 nM. The IC50 [4] was < 100 nM.

For N#Cc1c[nH]c2nc(Nc3ccc(C(=O)N4CCOCC4)c4c3OCCO4)nc(NC3CCC3)c12 [Example 125, 4-(cyclobutylamino)-2-((8-(morpholine-4-carbonyl)-2,3-dihydrobenzo[b][1,4]dioxin-5-yl)amino)-7H-pyrrolo[2,3-d]pyrimidine-5-carbonitrile], the IC50 [1] was 301 to 1000 nM, the IC50 [2] was 101 to 300 nM and the IC50 [3] was < 100 nM. For the same molecule, the IC50 [4] was < 100 nM.

With COCCNc1nc(Nc2ccc(C(=O)N3CCOCC3)c3c2OCCO3)nc2[nH]cc(C(F)(F)F)c12 [Example 168, (8-((4-((2-methoxyethyl)amino)-5-(trifluoromethyl)-7H-pyrrolo[2,3-d]pyrimidin-2-yl)amino)-2,3-dihydrobenzo[b][1,4]dioxin-5-yl)(morpholino)methanone] the IC50 [1] was < 100 nM, the IC50 [2] was < 100 nM and the IC50 [3] was < 100 nM. The IC50 [4] was < 100 nM.

CCNc1nc(Nc2ccc(S(C)(=O)=O)cc2OC)nc2[nH]cc(C(F)(F)F)c12 [Example 159, N^4-ethyl-N^2-(2-methoxy-4-(methylsulfonyl)phenyl)-5-(trifluoromethyl)-7H-pyrrolo[2,3-d]pyrimidine-2,4-diamine] showed an IC50 [1] of 301 to 1000 nM, an IC50 [2] of 301 to 1000 nM and an IC50 [3] of 301 to 1000 nM. The IC50 [4] was < 100 nM.

CCNc1nc(Nc2ccc(S(C)(=O)=O)cc2OC)nc2[nH]cc(C#N)c12 [Example 98, 4-(ethylamino)-2-((2-methoxy-4-(methylsulfonyl)phenyl)amino)-7H-pyrrolo[2,3-d]pyrimidine-5-carbonitrile] was tested, and the IC50 [1] was 301 to 1000 nM, the IC50 [2] was 301 to 1000 nM and the IC50 [3] was < 100 nM. For the same molecule, the IC50 [4] was < 100 nM.

In the case of CCCNc1nc(Nc2ccc(S(C)(=O)=O)cc2OC)nc2[nH]cc(C(F)(F)F)c12 [Example 181, N^2-(2-methoxy-4-(methylsulfonyl)phenyl)-N^4-propyl-5-(trifluoromethyl)-7H-pyrrolo[2,3-d]pyrimidine-2,4-diamine], the IC50 [1] is reported as 301 to 1000 nM, the IC50 [2] is reported as 301 to 1000 nM and the IC50 [3] is reported as 101 to 300 nM. The IC50 [4] was 101 to 300 nM.

N#Cc1c[nH]c2nc(Nc3ccc(C(=O)N4CCOCC4)c4c3OCCO4)nc(NC3CC3)c12 [Example 124, 4-(cyclopropylamino)-2-((8-(morpholine-4-carbonyl)-2,3-dihydrobenzo[b][1,4]dioxin-5-yl)amino)-7H-pyrrolo[2,3-d]pyrimidine-5-carbonitrile] was tested, and the IC50 [1] was 101 to 300 nM, the IC50 [2] was 101 to 300 nM and the IC50 [3] was < 100 nM. The IC50 [4] was < 100 nM.

COCCNc1nc(Nc2ccc(C(=O)N3CCOCC3)c3c2OCCO3)nc2[nH]cc(C(N)=O)c12 [Example 235, 4-((2-methoxyethyl)amino)-2-((8-(morpholine-4-carbonyl)-2,3-dihydrobenzo[b][1,4]dioxin-5-yl)amino)-7H-pyrrolo[2,3-d]pyrimidine-5-carboxamide] was tested, and the IC50 [1] was 301 to 1000 nM, the IC50 [2] was 301 to 1000 nM and the IC50 [3] was 301 to 1000 nM. For the same molecule, the IC50 [4] was 301 to 1000 nM.

Molecule O=C(c1ccc(Nc2nc(NC3CCC3)c3c(C(F)(F)F)c[nH]c3n2)c2c1OCCO2)N1CCOCC1 [Example 185, (8-((4-(cyclobutylamino)-5-(trifluoromethyl)-7H-pyrrolo[2,3-d]pyrimidin-2-yl)amino)-2,3-dihydrobenzo[b][1,4]dioxin-5-yl)(morpholino)methanone] has an IC50 [1] of 301 to 1000 nM, an IC50 [2] of 101 to 300 nM and an IC50 [3] of 101 to 300 nM. The IC50 [4] was < 100 nM.

For N#Cc1c[nH]c2nc(Nc3ccc(C(=O)N4CCOCC4)c4c3OCCO4)nc(NCC3CC3)c12 [Example 130, 4-((cyclopropylmethyl)amino)-2-((8-(morpholine-4-carbonyl)-2,3-dihydrobenzo[b][1,4]dioxin-5-yl)amino)-7H-pyrrolo[2,3-d]pyrimidine-5-carbonitrile], the IC50 [1] was 301 to 1000 nM, the IC50 [2] was 301 to 1000 nM and the IC50 [3] was < 100 nM. For the same molecule, the IC50 [4] was < 100 nM.

With COCCNc1nc(Nc2ccc(S(C)(=O)=O)cc2OC)nc2[nH]cc(C(F)(F)F)c12 [Example 171, N^2-(2-methoxy-4-(methylsulfonyl)phenyl)-N^4-(2-methoxyethyl)-5-(trifluoromethyl)-7H-pyrrolo[2,3-d]pyrimidine-2,4-diamine] the IC50 [1] was 301 to 1000 nM, the IC50 [2] was 301 to 1000 nM and the IC50 [3] was < 100 nM. The IC50 [4] was < 100 nM.

COc1cc(S(C)(=O)=O)ccc1Nc1nc(NC2CCCCC2)c2c(C#N)c[nH]c2n1 [Example 107, 4-(cyclohexylamino)-2-((2-methoxy-4-(methylsulfonyl)phenyl)amino)-7H-pyrrolo[2,3-d]pyrimidine-5-carbonitrile] showed an IC50 [1] of 301 to 1000 nM, an IC50 [2] of 301 to 1000 nM and an IC50 [3] of 301 to 1000 nM. For the same molecule, the IC50 [4] was 301 to 1000 nM.
